This passage reports IC50 results from patent publication US9586931B2 (Merck Sharp & Dohme Corp., priority 2012, dated 2017).

Broadly, the IC50 is the concentration at which inhibition is half-maximal.

In this assay the target is T1, recombinant human GST-Syk (Homo sapiens, UniProt P43405).
T1 construct: purchased Carna Biosciences 08-176
Nature of the assay: Homogeneous Time-Resolved Fluorescence (HTRF) assay for the recombinant human Syk enzyme. The assay is classed as biochemical. To be noted: recombinant human GST-Syk 5 pM, ATP 25 μM, 10-dose titration 10 μM to 0.508 nM; read-out: rhSYK Activity IC50. How it is done:
Syk inhibition may be determined using the following assay protocol:
Homogeneous Time-Resolved Fluorescence (HTRF) assay for the recombinant human Syk enzyme: A recombinant GST-hSyk fusion protein was used to measure potency of compounds to inhibit human Syk activity. […] Final volume of the reaction was 10 μL. Phosphorylation of the peptide was allowed to proceed for 45 minutes at room temperature. To quench the reaction and detect the phosphorylated product, 2 nM of a Europium-anti-phosphotyrosine antibody (Perkin Elmer #AD0161) and 70 nM SA-APC (Perkin-Elmer #CR130-100) were added together in 15 mM Tris pH 7.5, 40 mM EDTA, 0.01% tween 20. Final volume of the quenching solution was 10 μL. The resulting HTRF signal was measured after 30 minutes on an EnVision (Perkin-Elmer) reader using a time-resolved fluorescence protocol.
Background: Time-resolved FRET reads energy transfer from a long-lived donor to a nearby acceptor.
For `Cc1cc(Nc2nccc(C(F)(F)F)n2)cc(-c2cn(CC(=O)NC(C)(C)C)nn2)c1` [Example 5.70, N-tert-butyl-2-[4-(3-methyl-5-{[4-(trifluoromethyl)pyrimidin-2-yl]amino}phenyl)-1H-1,2,3-triazol-1-yl]acetamide], the IC50 is 183 nM.
As for `Cc1cc(Nc2cc(C(F)(F)F)ccn2)nc(-c2cn(C(C)C(=O)NCC(c3ccc(C(F)(F)F)cc3)N3CCOCC3)nn2)c1` (stereo not shown) [Example 1.52, 2-[4-(4-methyl-6-{[4-(trifluoromethyl)pyridin-2-yl]amino}pyridin-2-yl)-1H-1,2,3-triazol-1-yl]-N-{2-morpholin-4-yl-2-[4-(trifluoromethyl)phenyl]ethyl}propanamide], the figure is 435 nM; as for `Cc1cc(Nc2cc(C(F)(F)F)ccn2)nc(-c2cn([C@H](C)C(=O)NCC(=O)O)nn2)c1` [Example 3.14, N-{(2R)-2-[4-(4-methyl-6-{[4-(trifluoromethyl)pyridin-2-yl]amino}pyridin-2-yl)-1H-1,2,3-triazol-1-yl]propanoyl}glycine], 9.6 nM.
To `Cc1cc(Nc2nccc(OC(C)C)n2)cc(-c2cn(CC(C)(O)C(C)(C)O)nn2)c1` (stereo not shown) [Example 21.13, 2,3-dimethyl-1-[4-(3-methyl-5-{[4-(1-methylethoxy)pyrimidin-2-yl]amino}phenyl)-1H-1,2,3-triazol-1-yl]butane-2,3-diol] belongs 39.6 nM.
To `Cc1cc(Nc2cc(C(F)(F)F)ccn2)nc(-c2cn(C[C@@H](C)CO)nn2)c1` [Example 5.81, (2R)-2-methyl-3-[4-(4-methyl-6-{[4-(trifluoromethyl)pyridin-2-yl]amino}pyridin-2-yl)-1H-1,2,3-triazol-1-yl]propan-1-ol] belongs 6.9 nM.
As to `Cc1cc(Nc2ncc(F)c(C(F)F)n2)cc(-c2cn(CC3CNC(=O)O3)nn2)c1` (single isomer, unassigned) [Example 7.35, 5-{[4-(3-{[4-(difluoromethyl)-5-fluoropyrimidin-2-yl]amino}-5-methylphenyl)-1H-1,2,3-triazol-1-yl]methyl}-1,3-oxazolidin-2-one], the IC50 amounted to 7.6 nM.
To `COc1ccc(C2CN(C(=O)C(C)n3cc(-c4cc(C)cc(Nc5cc(C(F)(F)F)ccn5)n4)nn3)CCS2)cc1` (stereo not shown) [Example 1.45, 6-(1-{2-[2-(4-methoxyphenyl)thiomorpholin-4-yl]-1-methyl-2-oxoethyl}-1H-1,2,3-triazol-4-yl)-4-methyl-N-[4-(trifluoromethyl)pyridin-2-yl]pyridin-2-amine] belongs 172 nM.
Regarding `Cc1cc(Nc2cc(C(F)(F)F)ccn2)nc(-c2cn(Cc3c[nH]cn3)nn2)c1` [Example 5.108, 6-[1-(1H-imidazol-4-ylmethyl)-1H-1,2,3-triazol-4-yl]-4-methyl-N-[4-(trifluoromethyl)pyridin-2-yl]pyridin-2-amine], the IC50 turned out to be 2.5 nM.
To `Cc1cc(Nc2cc(C(F)F)ccn2)nc(-c2cn(C(C)C(C)(O)CO)nn2)c1` (single isomer, unassigned) [Example 30.8, 3-[4-(6-{[4-(difluoromethyl)pyridin-2-yl]amino}-4-methylpyridin-2-yl)-1H-1,2,3-triazol-1-yl]-2-methylbutane-1,2-diol] belongs 1.2 nM; to `COc1nc(Nc2cc(C)cc(-c3cn(CC(C)(O)C(C)(C)O)nn3)c2)ncc1F` (stereo not shown) [Example 21.20, 1-(4-{3-[(5-fluoro-4-methoxypyrimidin-2-yl)amino]-5-methylphenyl}-1H-1,2,3-triazol-1-yl)-2,3-dimethylbutane-2,3-diol], 109 nM; to `Cc1cc(Nc2cc(C(F)F)ccn2)nc(-c2cn(CC3CNCCO3)nn2)c1` (single isomer, unassigned) [Example 26.1, N-(4-(difluoromethyl)pyridin-2-yl)-4-methyl-6-(1-(morpholin-2-ylmethyl)-1H-1,2,3-triazol-4-yl)pyridin-2-amine], 5.7 nM.
To `Cc1cc(Nc2cc(C(F)(F)F)ccn2)nc(-c2cn(C3CNCC3O)nn2)c1` (stereo not shown) [Example 4.15, 4-[4-(4-methyl-6-{[4-(trifluoromethyl)pyridin-2-yl]amino}pyridin-2-yl)-1H-1,2,3-triazol-1-yl]pyrrolidin-3-ol] belongs 32.9 nM; to `Cc1cc(Nc2cc(C(F)(F)F)ccn2)nc(-c2cn(C/C=C/c3ccncc3)nn2)c1` [Example 5.33, 4-methyl-6-{1-[(2E)-3-pyridin-4-ylprop-2-en-1-yl]-1H-1,2,3-triazol-4-yl}-N-[4-(trifluoromethyl)pyridin-2-yl]pyridin-2-amine], 58.5 nM; to `Cc1cc(Nc2cc(C(F)(F)F)ccn2)nc(-c2cn(C3CCCCC(O)C3O)nn2)c1` (single isomer, unassigned) [Example 10.3, 3-[4-(4-methyl-6-{[4-(trifluoromethyl)pyridin-2-yl]amino}pyridin-2-yl)-1H-1,2,3-triazol-1-yl]cycloheptane-1,2-diol], 1 nM.
Regarding `Cc1cc(Nc2cc(C(F)(F)F)ccn2)nc(-c2cn(C/C=C/C(N)=O)nn2)c1` [Example 1.26, (2E)-4-[4-(4-methyl-6-{[4-(trifluoromethyl)pyridin-2-yl]amino}pyridin-2-yl)-1H-1,2,3-triazol-1-yl]but-2-enamide], the half-inhibitory concentration (IC50) worked out at 1110 nM.
To `Cc1cc(Nc2nccc(OCCO)n2)cc(-c2cn(C[C@H](O)CO)nn2)c1` [Example 5.8, (2S)-3-[4-(3-{[4-(2-hydroxyethoxy)pyrimidin-2-yl]amino}-5-methylphenyl)-1H-1,2,3-triazol-1-yl]propane-1,2-diol] belongs 62 nM.
As for `Cc1cc(Nc2nccc(C(F)(F)F)n2)cc(-n2cc(C3(O)CCC(C(N)=O)C(C)(C)C3)nn2)c1` (stereo not shown) [Example 1.58, 4-hydroxy-2,2-dimethyl-4-[1-(3-methyl-5-{[4-(trifluoromethyl)pyrimidin-2-yl]amino}phenyl)-1H-1,2,3-triazol-4-yl]cyclohexanecarboxamide], the figure is 29.7 nM.
For `Cc1cc(Nc2nccc(C)n2)cc(-c2cn(C3CCCCC3O)nn2)c1` (single isomer, unassigned) [Example 7.22, 2-(4-{3-methyl-5-[(4-methylpyrimidin-2-yl)amino]phenyl}-1H-1,2,3-triazol-1-yl)cyclohexanol], the IC50 was found to be 56 nM.
As to `Cc1cc(Nc2cc(C(F)(F)F)ccn2)nc(-c2cn(CS(N)(=O)=O)nn2)c1` [Example 5.107, 1-[4-(4-methyl-6-{[4-(trifluoromethyl)pyridin-2-yl]amino}pyridin-2-yl)-1H-1,2,3-triazol-1-yl]methanesulfonamide], the IC50 was determined as 5.1 nM.
To `Cc1cc(Nc2nccc(C(F)(F)F)n2)cc(-c2cn(CC3(O)CCC(C(=O)O)C(C)(C)C3)nn2)c1` (single isomer, unassigned) [Example 3.3, (R or S) 4-hydroxy-2,2-dimethyl-4-{[4-(3-methyl-5-{4-(trifluoromethyl)pyrimidin-2-yl]amino}phenyl)-1H-1,2,3-triazol-1-yl]methyl}cyclohexanecarboxylic acid] belongs 54.3 nM; to `Cc1cc(Nc2cc(C3CC3)ccn2)nc(-c2cn(C(C)c3ccc(C(=O)O)cc3)nn2)c1` (stereo not shown) [Example 2.11, 4-[1-(4-{6-[(4-cyclopropylpyridin-2-yl)amino]-4-methylpyridin-2-yl}-1H-1,2,3-triazol-1-yl)ethyl]benzoic acid], 6.4 nM; to `Cc1cc(Nc2cc(C)c(Cl)cn2)nc(-c2cn(CC(C)(O)C(C)(C)O)nn2)c1` (stereo not shown) [Example 21.24, 1-(4-{6-[(5-chloro-4-methylpyridin-2-yl)amino]-4-methylpyridin-2-yl}-1H-1,2,3-triazol-1-yl)-2,3-dimethylbutane-2,3-diol], 31.9 nM.
For the compound `Cc1cc(Nc2cc(C(F)(F)F)ccn2)nc(-c2cn(C3CN(C(=O)C(C)O)CC3O)nn2)c1` (single isomer, unassigned) [Example 13.3, 1-[2-hydroxypropanoyl]-4-[4-(4-methyl-6-{[4-(trifluoromethyl)pyridin-2-yl]amino}pyridin-2-yl)-1H-1,2,3-triazol-1-yl]pyrrolidin-3-ol], the IC50 was determined as 10.5 nM.
In the case of `Cc1cc(Nc2nccc(C(F)F)n2)cc(-c2cn(C(C)C3CNC(=O)O3)nn2)c1` (single isomer, unassigned) [Example 7.2, 5-(1-(4-(3-((4-(Difluoromethyl)pyrimidin-2-yl)amino)-5-methylphenyl)-1H-1,2,3-triazol-1-yl)ethyl)oxazolidin-2-one], the IC50 was 3.3 nM.
As for `Cc1cc(Nc2nccc(C(F)(F)F)n2)cc(-c2cn(C(C)C(=O)O)nn2)c1` (racemic) [Example 5.64, 2-[4-(3-methyl-5-{[4-(trifluoromethyl)pyrimidin-2-yl]amino}phenyl)-1H-1,2,3-triazol-1-yl]propanoic acid], the IC50 is 41.4 nM.
Take `Cc1cc(Nc2cc(C(F)(F)F)ccn2)nc(-c2cn(C(CO)c3ccc(C(=O)O)cc3)nn2)c1` (stereo not shown) [Example 3.17, 4-{2-hydroxy-1-[4-(4-methyl-6-{[4-(trifluoromethyl)pyridin-2-yl]amino}pyridin-2-yl)-1H-1,2,3-triazol-1-yl]ethyl}benzoic acid]: the IC50 is 0.1 nM.
To `Cc1cc(Nc2cc(C(F)F)ccn2)nc(-c2cn(CC3CNC(=O)C3)nn2)c1` (single isomer, unassigned) [Example 24.2, 4-((4-(6-((4-(difluoromethyl)pyridin-2-yl)amino)-4-methylpyridin-2-yl)-1H-1,2,3-triazol-1-yl)methyl)pyrrolidin-2-one] belongs 8.6 nM.
To `COC(=O)C1CCC(n2cc(-c3cc(C)cc(Nc4nccc(C(F)(F)F)n4)c3)nn2)CC1` (mixture of isomers) [Example 5.99, methyl 4-[4-(3-methyl-5-{[4-(trifluoromethyl)pyrimidin-2-yl]amino}phenyl)-1H-1,2,3-triazol-1-yl]cyclohexane-carboxylate] belongs 430 nM.
